In series [1] the test system is L-1210 cells. Kind of series: Cytotoxicity L-1210 (no light), cytostatic activity. It counts as cell-based, human. The settings on record: no light; for Cytotoxicity L-1210 (no light), concentration giving 50%: 50% effect. An excerpt: Column L1210 corresponds to the cytostatic activity.
Series [2] has as its system human colic adenocarcinoma cell line HT29. Nature of the series: HT29 cell survival (MTT assay) after 24 h incubation, with or without light irradiation. The following applies: for Photocytotoxicity HT 29, concentration giving 50%: 50% effect, with light; for cytotoxic for HT29 (in words): without light, remark of the inventors.
Description: HT29 cells were cultivated in Dulbecco's MEM supplemented with 10% fetal calf serum (FCS). Cells from log-phase culture were seeded in 24-microwell plates (1 mL-5×10^4 cells/well) and kept at 37° C. in a water-jacketed incubator for 2 days under an air/CO2 atmosphere (5% CO2). Tested compounds, in DMSO solution, were added under the minimum volume (5 μL) to reach a concentration ranging from 0.1 to 10 μg/mL. Controls cells received 5 μL of DMSO free of dye. Plates were incubated 24 h, then medium was removed and the cells were washed twice with phosphate buffered saline (PBS) before addition of fresh medium free of drug and irradiation with visible light using a home made “light box” giving a fluence of 3.8 mW/cm^2 on the whole visible spectrum. Irradiation with red light was carried out using the same device fitted with an orange filter (0% T at 520 nm and 80% T at 590 nm) leading to a fluence of 2 mW/cm^2.
Plates were reincubated for 3 days before evaluation of the cell survival using the MTT assay (T. Mosmann, “Rapid calorimetric assay for cellular growth and survival. Application to proliferation assays”. J. Immunol. Methods 65,55-63,1983) using 30 min incubation with 100 μg well of 3-[4,5-dimethylthiazol-2-yl]-2,5-diphenyl tetrazolium bromide (MTT, Sigma). After removal of the medium, formazan crystals were taken up with 100 μL of DMSO and absorbance at 540 ni was measured with a Bio-Rad microplate reader (model 450); survival was expressed as % of untreated controls.
Series [3] concerns RBY-79 (indifferently named Y-79) cells. Nature of the series: RBY-79 (Y79) cell cytotoxicity / photocytotoxicity. The following applies: for Photocytotoxicity RBY-79, concentration giving 50%: with light; for cytotoxic for Y79 (in words): without light, remark of the inventors.
Excerpt: Columns HT29 and Y79 (═RBY79), without light, correspond to the cytotoxic activity.
The mark [4] stands for this setting: read-out: HT 29 IC50 (μM) with 2J/cm^2, irradiation with filter (0% T at 520 nm, 80% T at 590 nm), 3.5 mW/cm^2, 10 min.
Setting [5] is: read-out: HT 29 IC50 (μM) without light, without light (cytotoxic activity).
Where [6] appears, read: read-out: Y79 IC50 (μM) With 2J/cm^2, irradiation with filter (0% T at 520 nm, 80% T at 590 nm), 3.5 mW/cm^2, 10 min.
The mark [7] stands for this setting: read-out: Y79 IC50 (μM) without light, without light (cytotoxic activity).

We go through 14 molecules from US7371742B2, “Porphyrin derivatives for photodynamic therapy” (Institut Curie, priority 2001, dated 2008).

Like-named read-outs stand apart in the source and are kept apart here.

As for `OC[C@H]1O[C@@H](Sc2c(F)c(F)c(-c3c4nc(c(-c5c(F)c(F)c(S[C@@H]6O[C@H](CO)[C@@H](O)[C@H](O)[C@H]6O)c(F)c5F)c5ccc([nH]5)c(-c5c(F)c(F)c(S[C@@H]6O[C@H](CO)[C@@H](O)[C@H](O)[C@H]6O)c(F)c5F)c5nc(c(-c6c(F)c(F)c(S[C@@H]7O[C@H](CO)[C@@H](O)[C@H](O)[C@H]7O)c(F)c6F)c6ccc3[nH]6)C=C5)C=C4)c(F)c2F)[C@H](O)[C@@H](O)[C@@H]1O` [Compound 25, TPP F4(p-S-β-GluOH)4], in series [1], the “Cytotoxicity L-1210 (no light), % at 10 μg/ml” value is 18% 10 μg/ml. Further, the “Photocytotoxicity HT 29, concentration giving 50%” value in series [2] was “inactive”. Also, the IC50 is above 10 µM in series [2] (setting [4]), above 10 µM in series [2] (setting [5]), 4 µM in series [3] (setting [6]) and above 10 µM in series [3] (setting [7]). Moreover, the “Photocytotoxicity RBY-79, concentration giving 50%” value in series [3] (50% effect) is “inactive”.
With `O[C@@H]1[C@@H](O)[C@H](Sc2c(F)c(F)c(-c3c4nc(c(-c5c(F)c(F)c(S[C@@H]6OC[C@@H](O)[C@H](O)[C@H]6O)c(F)c5F)c5ccc([nH]5)c(-c5c(F)c(F)c(S[C@@H]6OC[C@@H](O)[C@H](O)[C@H]6O)c(F)c5F)c5nc(c(-c6c(F)c(F)c(S[C@@H]7OC[C@@H](O)[C@H](O)[C@H]7O)c(F)c6F)c6ccc3[nH]6)C=C5)C=C4)c(F)c2F)OC[C@H]1O` [Compound 27, TPP F4(p-S-β-XylOH)4], in series [1], the “Cytotoxicity L-1210 (no light), concentration giving 50%” value turned out to be 14 µg/mL. The “Photocytotoxicity HT 29, concentration giving 50%” value in series [2] is 7.5 µg/mL. The IC50 in series [2] (setting [4]) was 5 µM; in series [2] (setting [5]) it was above 10 µM; in series [3] (setting [6]), 1 µM. The “Photocytotoxicity RBY-79, concentration giving 50%” value in series [3] (50% effect) was 50% 1.6 μg/ml. The “Y79 IC50 (μM) without light” value in series [3] (without light (cytotoxic activity)) is recorded as “Inactive for μM”.
As for `O[C@@H]1[C@@H](O)[C@H](Sc2c(F)c(F)c(-c3c4nc(c(-c5c(F)c(F)c(S[C@@H]6OC[C@@H](O)[C@H](O)[C@H]6O)c(F)c5F)c5ccc([nH]5)c(-c5c(F)c(F)c(S[C@@H]6OC[C@@H](O)[C@H](O)[C@H]6O)c(F)c5F)c5nc(c(-c6c(F)c(F)c(F)c(F)c6F)c6ccc3[nH]6)C=C5)C=C4)c(F)c2F)OC[C@H]1O` [Compound 28, TPP F4(p-S-β-XylOH)3], in series [1], the “Cytotoxicity L-1210 (no light), concentration giving 50%” value came out at 50% 9 μg/ml. Further, the “Photocytotoxicity HT 29, concentration giving 50%” value in series [2] is listed as 50% 3.7 μg/ml. Besides, the IC50 is 2.6 µM in series [2] (setting [4]), above 10 µM in series [2] (setting [5]), 1.2 µM in series [3] (setting [6]) and above 10 µM in series [3] (setting [7]). For the same molecule, the “Photocytotoxicity RBY-79, concentration giving 50%” value in series [3] (50% effect) was 1.7 µg/mL.
For `OC[C@H]1O[C@H](Sc2c(F)c(F)c(-c3c4nc(c(-c5c(F)c(F)c(S[C@H]6O[C@H](CO)[C@@H](O)[C@H](O)[C@@H]6O)c(F)c5F)c5ccc([nH]5)c(-c5c(F)c(F)c(S[C@H]6O[C@H](CO)[C@@H](O)[C@H](O)[C@@H]6O)c(F)c5F)c5nc(c(-c6c(F)c(F)c(S[C@H]7O[C@H](CO)[C@@H](O)[C@H](O)[C@@H]7O)c(F)c6F)c6ccc3[nH]6)C=C5)C=C4)c(F)c2F)[C@@H](O)[C@@H](O)[C@@H]1O` [Compound 29, TPP F4(p-S-α-MannOH)4], the IC50 in series [2] (setting [4]) was 2.4 µM; in series [2] (setting [5]), above 10 µM; in series [3] (setting [6]) it was 3.3 µM; in series [3] (setting [7]), above 10 µM.
Take `OC[C@H]1O[C@H](Sc2c(F)c(F)c(/C3=c4\cc/c([nH]4)=C(\c4c(F)c(F)c(F)c(F)c4F)C4=NC(C=C4)[C@@H](c4c(F)c(F)c(F)c(F)c4F)c4ccc([nH]4)/C(c4c(F)c(F)c(S[C@H]5O[C@H](CO)[C@@H](O)[C@H](O)[C@@H]5O)c(F)c4F)=C4/C=CC3=N4)c(F)c2F)[C@@H](O)[C@@H](O)C1O` (stereo partly drawn) [Compound 31]: the “Photocytotoxicity RBY-79, % at 2 μg/ml” value in series [3] was determined as 80% 2 μg/ml.
For the molecule `OC[C@H]1O[C@H](Sc2c(F)c(F)c(-c3c4nc(c(-c5c(F)c(F)c(S[C@H]6O[C@H](CO)[C@@H](O)[C@H](O)[C@@H]6O)c(F)c5F)c5ccc([nH]5)c(-c5c(F)c(F)c(S[C@H]6O[C@H](CO)[C@@H](O)[C@H](O)[C@@H]6O)c(F)c5F)c5nc(c(-c6c(F)c(F)c(F)c(F)c6F)c6ccc3[nH]6)C=C5)C=C4)c(F)c2F)[C@@H](O)[C@@H](O)[C@@H]1O` [Compound 33, TPP F4(p-S-α-MannOH)3], the IC50 in series [2] (setting [4]) is 1.7 µM; in series [2] (setting [5]) it was above 10 µM; in series [3] (setting [6]) it was 2.7 µM; in series [3] (setting [7]) it was above 10 µM. Further, in series [3], the “Photocytotoxicity RBY-79, % at 2 μg/ml” value amounted to 90% 2 μg/ml.
Take `O[C@@H]1[C@@H](O)[C@H](SCc2ccc(-c3c4nc(c(-c5ccc(CS[C@@H]6OC[C@@H](O)[C@H](O)[C@H]6O)cc5)c5ccc([nH]5)c(-c5ccc(CS[C@@H]6OC[C@@H](O)[C@H](O)[C@H]6O)cc5)c5nc(c(-c6ccc(CS[C@@H]7OC[C@@H](O)[C@H](O)[C@H]7O)cc6)c6ccc3[nH]6)C=C5)C=C4)cc2)OC[C@H]1O` [Compound 64, TPP(p-CH2-S-β-XylOH)4]: in series [1], the “Cytotoxicity L-1210 (no light), % at 10 μg/ml” value came out at 32%. For the same molecule, the “Photocytotoxicity HT 29, % at 10 μg/ml” value in series [2] (10 μg/ml) came out at 30% at. The results for the IC50 in series [2] (setting [4]), in series [2] (setting [5]) and in series [3] (setting [7]) were 4.5 µM, above 10 µM and 3.8 µM, respectively. In addition, the “RBY-79, concentration giving 50% with light or not” value in series [3] (50% effect, with light or not) was 50% at 7 μg/ml. In addition, the “Y79 IC50 (μM) With 2J/cm^2” value in series [3] (irradiation with filter (0% T at 520 nm, 80% T at 590 nm), 3.5 mW/cm^2, 10 min) is recorded as “Inactive”. For the same molecule, the “cytotoxic for Y79 (in words)” value in series [3] is reported as “cytotoxic”.
As for `OC[C@H]1O[C@H](SCCOCCOCCOc2ccc(-c3c4nc(c(-c5ccc(OCCOCCOCCS[C@H]6O[C@H](CO)[C@@H](O)[C@H](O)[C@@H]6O)cc5)c5ccc([nH]5)c(-c5ccc(OCCOCCOCCS[C@H]6O[C@H](CO)[C@@H](O)[C@H](O)[C@@H]6O)cc5)c5nc(c(-c6ccccc6)c6ccc3[nH]6)C=C5)C=C4)cc2)[C@@H](O)[C@@H](O)[C@@H]1O` [Compound 74, 5,10,15-tri(para-10-S-α-D-thiomanosyloxy-O-triethylene glycoloxyphenyl)-20-phenylporphyrin], the IC50 turned out to be 4.8 µM in series [2] (setting [4]), 10.5 µM in series [2] (setting [5]), 0.5 ± 0.3 µM in series [3] (setting [6]) and 11 ± 5 µM in series [3] (setting [7]).
The corresponding values for `OC[C@H]1O[C@@H](Oc2ccc(-c3c4nc(c(-c5ccc(O[C@@H]6O[C@H](CO)[C@@H](O)[C@H](O)[C@H]6O)cc5)c5ccc([nH]5)c(-c5ccc(O[C@@H]6O[C@H](CO)[C@@H](O)[C@H](O)[C@H]6O)cc5)c5nc(c(-c6ccccc6)c6ccc3[nH]6)C=C5)C=C4)cc2)[C@H](O)[C@@H](O)[C@@H]1O` [TPP(p-O-β-GluOH)3, reference compound] are 1.5 ± 0.2 µM, above 15 µM, 0.9 µM and above 15 µM.
For `OC[C@H]1O[C@@H](Oc2ccc(-c3c4nc(c(-c5ccc(O[C@@H]6O[C@H](CO)[C@@H](O)[C@H](O)[C@H]6O)cc5)c5ccc([nH]5)c(-c5ccc(O[C@@H]6O[C@H](CO)[C@@H](O)[C@H](O)[C@H]6O)cc5)c5nc(c(-c6ccc(O[C@@H]7O[C@H](CO)[C@@H](O)[C@H](O)[C@H]7O)cc6)c6ccc3[nH]6)C=C5)C=C4)cc2)[C@H](O)[C@@H](O)[C@@H]1O` [TPP(p-O-β-GluOH)4, reference compound] the same measures were above 10 µM, above 10 µM, 5.2 ± 4 µM and 7 ± 4 µM.
On to `Oc1ccc(-c2c3nc(c(-c4ccc(O)cc4)c4ccc([nH]4)c(-c4ccc(O)cc4)c4nc(c(-c5ccccc5)c5ccc2[nH]5)C=C4)C=C3)cc1` [TPP(p-OH)3, reference compound], for which the IC50 in series [2] (setting [4]) is 1.65 ± 0.07 µM; in series [2] (setting [5]), above 15 µM; in series [3] (setting [6]), 1.8 ± 0.1 µM; in series [3] (setting [7]), above 10 µM.
Consider `Oc1ccc(-c2c3nc(c(-c4ccc(O)cc4)c4ccc([nH]4)c(-c4ccc(O)cc4)c4nc(c(-c5ccc(O)cc5)c5ccc2[nH]5)C=C4)C=C3)cc1` [TPP(p-OH)4, reference compound], for which the IC50 in series [2] (setting [4]) is 0.8 ± 1 µM; in series [2] (setting [5]), 7.75 ± 3 µM; in series [3] (setting [6]) it was 0.3 µM; in series [3] (setting [7]) it was 4.7 ± 2.5 µM. Besides, in series [2], the “cytotoxic for HT29 (in words)” value was “cytotoxic”. Also, the “cytotoxic for Y79 (in words)” value in series [3] is reported as “cytotoxic”.
In the case of `Oc1cccc(-c2c3nc(c(-c4cccc(O)c4)c4ccc([nH]4)c(-c4cccc(O)c4)c4nc(c(-c5cccc(O)c5)c5ccc2[nH]5)CC4)C=C3)c1` [m-THPC, reference compound], the IC50 was 0.8 ± 0.3 µM in series [2] (Homo sapiens, HT-29, light or radiation study, 10 min, read-out: HT 29 IC50 (μM) with 2J/cm^2); above 10 µM in series [2] (Homo sapiens, HT-29, read-out: HT 29 IC50 (μM) without light); 0.6 ± 0.03 µM in series [3] (Homo sapiens, Y79, light or radiation study, 10 min, read-out: Y79 IC50 (μM) With 2J/cm^2); above 10 µM in series [3] (Homo sapiens, Y79, read-out: Y79 IC50 (μM) without light). In series [2], the “cytotoxic for HT29 (in words)” value is on record as “cytotoxic”. Also, the “cytotoxic for Y79 (in words)” value in series [3] was “cytotoxic”.
With TPPF4(p-O-β-GluOH)4 [Compound 63], the IC50 in series [2] (setting [4]), in series [2] (setting [5]), in series [3] (setting [6]) and in series [3] (setting [7]) was above 10 µM in each case. In addition, in series [3] (10 μg/ml, white light), the “Photocytotoxicity RBY-79, % at 10 μg/ml white light” value was 37%.
